# Measured values reported in patent US20260001928A1 (CORTERIA PHARMACEUTICALS, priority 2022, published 2026).
# *1 amine or outer side, *2 acyl side, *3 side chain or, on linkers, in order; H or OH if unused. Where a SMILES comes first, the peptide text is derived from it. Side-chain parts run from the residue outwards. [ ]: non-standard residue; d: D form. The star is where a group is joined. C20 diacid = O=C(O)CCCCCCCCCCCCCCCCCCC(=O)*; C18 diacid = O=C(O)CCCCCCCCCCCCCCCCC(=O)*; γGlu = O=C(O)[C@H](CCC(=O)[*:2])N[*:1]; NMeI = CC[C@H](C)[C@H](NC)C(=O)O; αMeL = CC(C)C[C@](C)(N)C(=O)O; AEEA = NCCOCCOCC(=O)O; Aib = CC(C)(N)C(=O)O
# Key:
# [1] = Pharmacokinetics in male Sprague Dawley rats after subcutaneous administration; assay type: in vivo; conditions: plasma, rat
# [2] = In vitro plasma stability, human plasma; assay type: in vitro ADME; set-up: dose or concentration left out as unconfirmed; conditions: Human PLM, 37° C.
# Experimental: (§1) In vitro plasma metabolic stability was studied in male Sprague Dawley rats and human. Test compounds were incubated at 3 M for 2 hours at 37° C. At each time point (0, 0.25, 1 and 2 h), samples were prepared for analysis by means of a single step protein precipitation technique by adding 150 μL of ethanol, 0.1% formic acid to 50 μL aliquots of plasma. Samples were mixed by vortex for homogeneity and then subjected to centrifugation at 14000 rpm for 15 min. The supernatant (100 μL) was collected, diluted with 100 μL of water, 0.1% formic acid and analyzed by LC-HRMS (TripleTOF 6600+, AB Sciex). For each test compound, the area ratios at each time point were compared to the 0 h area ratio and converted to a percentage remaining.
# [3] = target: T1, CFR1R receptor (Homo sapiens, UniProt P34998); experiment: Activity at anti-target CFR1R receptor, cAMP assay in CRF1R-overexpression CHO-K1 cells; assay type: cell-based; conditions: 100% = Sauvagine at 100 nM; for EC50: cAMP
# T1 construct: host or cells: CHO-K1 (clone 2)
# T1 sequence (P34998 24-415): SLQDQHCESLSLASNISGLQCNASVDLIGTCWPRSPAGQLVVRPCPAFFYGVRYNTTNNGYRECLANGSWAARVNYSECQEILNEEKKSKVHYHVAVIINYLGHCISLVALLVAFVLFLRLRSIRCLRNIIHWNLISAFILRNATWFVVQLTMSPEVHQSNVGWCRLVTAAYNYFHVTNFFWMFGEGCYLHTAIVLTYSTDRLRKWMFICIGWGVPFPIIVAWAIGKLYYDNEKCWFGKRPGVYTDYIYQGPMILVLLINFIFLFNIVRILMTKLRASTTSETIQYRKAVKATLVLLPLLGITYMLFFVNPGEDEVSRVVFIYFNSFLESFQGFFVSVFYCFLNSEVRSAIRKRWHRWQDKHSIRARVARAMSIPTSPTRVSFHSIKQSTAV
# How it was run: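 Clone 2; cryopreserved stocks (10% DMSO); 4000 cells/well final; 100% activation = Sauvagine 100 nM; otherwise as TeloHAEC protocol.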
# [4] = In vitro plasma stability, rat plasma; assay type: in vitro ADME; set-up: remaining at 2 h: dose or concentration left out as unconfirmed; conditions: Rat PLM, 37° C.; for remaining at 2 h: male, Sprague Dawley, plasma
# Experimental: as §1
# [5] = In vitro plasma stability, minipig plasma; assay type: in vitro ADME; set-up: remaining at 2 h: dose or concentration left out as unconfirmed; conditions: Minipig PLM, 37° C.
# [6] = target: T2, rat CRF2 a (Rattus norvegicus, UniProt P47866); experiment: Activity at rat CRF2 a, cAMP assay in A7R5 rat aortic smooth muscle cells; assay type: cell-based; conditions: 0% HSA, 100% = Sauvagine at 100 nM
# T2 construct: host or cells: A7R5 rat aortic smooth muscle cells
# T2 sequence (P47866 27-431 isoform P47866-2 limits assumed): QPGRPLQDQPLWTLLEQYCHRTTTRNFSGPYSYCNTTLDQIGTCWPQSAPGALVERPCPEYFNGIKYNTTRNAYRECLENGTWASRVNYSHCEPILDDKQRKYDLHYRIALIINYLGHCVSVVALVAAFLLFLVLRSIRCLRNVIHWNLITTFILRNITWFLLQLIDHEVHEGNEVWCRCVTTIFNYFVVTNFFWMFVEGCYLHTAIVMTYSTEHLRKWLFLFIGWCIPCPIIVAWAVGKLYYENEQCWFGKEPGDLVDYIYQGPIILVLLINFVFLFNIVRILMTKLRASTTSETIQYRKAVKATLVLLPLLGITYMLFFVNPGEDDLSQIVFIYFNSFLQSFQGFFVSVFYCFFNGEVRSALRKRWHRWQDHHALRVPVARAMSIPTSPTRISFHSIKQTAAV
# How it was run: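 cAMP response measured in frozen-stock A7R5 rat aortic smooth muscle cells, 5000 cells/well final. 100% activation defined by Sauvagine at 100 nM in control wells.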
# [7] = in vitro; set-up: dose or concentration left out as unconfirmed; conditions: dog, plasma
SMILES,"AUC(0-t) ([1]; IV, 0.05 mg/kg) [ng·h/mL]","half-life ([1]; IV, 0.05 mg/kg) [h]","Tmax ([1]; SC, 0.1 mg/kg) [h]","half-life ([1]; SC, 0.1 mg/kg) [h]",remaining at 2 h [2] [%],Emax (% I) [3] [% I],EC50 [3] [nM],remaining at 2 h [4] [%],"remaining at 2 h ([5]; pig, plasma) [%]",% remaining at 2 hours [4] [%],% remaining at 2 hours [5] [%],EC50 [6] [nM],remaining at 2 h [7] [%]
CC[C@H](C)[C@H](NC(C)=O)C(=O)N[C@H](C(=O)N[C@@H](CC(C)C)C(=O)N[C@@H](CO)C(=O)N[C@@H](CC(C)C)C(=O)N[C@@H](CC(=O)O)C(=O)N[C@@H](C(=O)N1CCC[C@H]1C(=O)N[C@H](C(=O)N[C@@H](CCCCN)C(=O)N[C@@](C)(CC(C)C)C(=O)N[C@@H](CCCCNC(=O)COCCOCCNC(=O)COCCOCCNC(=O)CC[C@H](NC(=O)CCCCCCCCCCCCCCCCC(=O)O)C(=O)O)C(=O)N[C@@H](CCCCN)C(=O)N[C@H](C(=O)N[C@@H](CC(C)C)C(=O)N[C@@H](CC(C)C)C(=O)N[C@@H](CCC(=O)O)C(=O)N[C@@H](CCC(N)=O)C(=O)N[C@@H](CCC(=O)O)C(=O)N[C@@H](CCCCN)C(=O)N[C@@H](CCC(N)=O)C(=O)N[C@@H](CCCCN)C(=O)N[C@@H](CCCCN)C(=O)N[C@@H](CCC(N)=O)C(=O)N[C@@H](CCCNC(=N)N)C(=O)N[C@@H](CCC(=O)O)C(=O)N[C@@H](CCC(N)=O)C(=O)N[C@@H](C)C(=O)N[C@@H](CCC(=O)O)C(=O)N[C@H](C(=O)N[C@@H](CC(N)=O)C(=O)NC(C)(C)C(=O)N[C@@H](CCC(N)=O)C(=O)N[C@H](C(=O)N[C@@H](CC(C)C)C(=O)N[C@@H](C)C(=O)N[C@@H](CCC(N)=O)C(=O)N[C@H](C(N)=O)C(C)C)[C@@H](C)CC)[C@@H](C)O)[C@@H](C)CC)[C@@H](C)CC)C(C)C)C(C)C [compound 110] (Ac-IVLSLD[dV]PIK[αMeL]K([AEEA-AEEA-γGlu-C18 diacid])KILLEQEKQKKQREQAETN[Aib]QILAQV-NH2),3880,4.8,5,5,97,9,> 250,95,106,,,,
CC[C@H](C)[C@H](NC)C(=O)N[C@H](C(=O)N[C@@H](CC(C)C)C(=O)N[C@@H](CO)C(=O)N[C@@H](CC(C)C)C(=O)N[C@@H](CC(=O)O)C(=O)N[C@@H](C(=O)N1CCC[C@H]1C(=O)N[C@H](C(=O)N[C@@H](CCCCN)C(=O)N[C@@H](CC(C)C)C(=O)N[C@@H](CCCCNC(=O)COCCOCCNC(=O)COCCOCCNC(=O)CC[C@H](NC(=O)CCCCCCCCCCCCCCCCC(=O)O)C(=O)O)C(=O)N[C@@H](CCCCN)C(=O)N[C@H](C(=O)N[C@@H](CC(C)C)C(=O)N[C@@H](CC(C)C)C(=O)N[C@@H](CCC(=O)O)C(=O)N[C@@H](CCC(N)=O)C(=O)N[C@@H](CCC(=O)O)C(=O)N[C@@H](CCCCN)C(=O)N[C@@H](CCC(N)=O)C(=O)N[C@@H](CCCCN)C(=O)N[C@@H](CCCCN)C(=O)N[C@@H](CCC(N)=O)C(=O)N[C@@H](CCCNC(=N)N)C(=O)N[C@@H](CCC(=O)O)C(=O)N[C@@H](CCC(N)=O)C(=O)N[C@@H](C)C(=O)N[C@@H](CCC(=O)O)C(=O)N[C@H](C(=O)N[C@@H](CC(N)=O)C(=O)NC(C)(C)C(=O)N[C@@H](CCC(N)=O)C(=O)N[C@H](C(=O)N[C@@H](CC(C)C)C(=O)N[C@@H](C)C(=O)N[C@@H](CCC(N)=O)C(=O)N[C@H](C(N)=O)C(C)C)[C@@H](C)CC)[C@@H](C)O)[C@@H](C)CC)[C@@H](C)CC)C(C)C)C(C)C [compound 118] (H-[NMeI]VLSLD[dV]PIKLK([AEEA-AEEA-γGlu-C18 diacid])KILLEQEKQKKQREQAETN[Aib]QILAQV-NH2),3900,5.2,8,5.2,91,7,> 250,,,128,126,,
CC[C@H](C)[C@H](NC(C)=O)C(=O)N[C@H](C(=O)N[C@@H](CC(C)C)C(=O)N[C@@H](CO)C(=O)N[C@@H](CC(C)C)C(=O)N[C@@H](CC(=O)O)C(=O)N[C@@H](C(=O)N1CCC[C@H]1C(=O)N[C@H](C(=O)N[C@@H](CCCCN)C(=O)N[C@@H](CC(C)C)C(=O)N[C@@H](CCCCNC(=O)CC[C@H](NC(=O)CCCCCCCCCCCCCCCCCCC(=O)O)C(=O)O)C(=O)N[C@@H](CCCCN)C(=O)N[C@H](C(=O)N[C@@H](CC(C)C)C(=O)N[C@@H](CC(C)C)C(=O)N[C@@H](CCC(=O)O)C(=O)N[C@@H](CCC(N)=O)C(=O)N[C@@H](CCC(=O)O)C(=O)N[C@@H](CCCCN)C(=O)N[C@@H](CCC(N)=O)C(=O)N[C@@H](CCCCN)C(=O)N[C@@H](CCCCN)C(=O)N[C@@H](CCC(N)=O)C(=O)N[C@@H](CCCNC(=N)N)C(=O)N[C@@H](CCC(=O)O)C(=O)N[C@@H](CCC(N)=O)C(=O)N[C@@H](C)C(=O)N[C@@H](CCC(=O)O)C(=O)N[C@H](C(=O)N[C@@H](CC(N)=O)C(=O)NC(C)(C)C(=O)N[C@@H](CCC(N)=O)C(=O)N[C@H](C(=O)N[C@@H](CC(C)C)C(=O)N[C@@H](C)C(=O)N[C@@H](CCC(N)=O)C(=O)N[C@H](C(N)=O)C(C)C)[C@@H](C)CC)[C@@H](C)O)[C@@H](C)CC)[C@@H](C)CC)C(C)C)C(C)C [compound 206] (Ac-IVLSLD[dV]PIKLK([γGlu-C20 diacid])KILLEQEKQKKQREQAETN[Aib]QILAQV-NH2),8100,8,8,8,,42,,,,,,0.06,

# Other lines, results leading:
"AUC(0-t) ([1]; IV, 0.05 mg/kg) [ng·h/mL]","half-life ([1]; IV, 0.05 mg/kg) [h]","Tmax ([1]; SC, 0.1 mg/kg) [h]","half-life ([1]; SC, 0.1 mg/kg) [h]",remaining at 2 h [2] [%],Emax (% I) [3] [% I],EC50 [3] [nM],remaining at 2 h [4] [%],"remaining at 2 h ([5]; pig, plasma) [%]",% remaining at 2 hours [4] [%],% remaining at 2 hours [5] [%],EC50 [6] [nM],remaining at 2 h [7] [%],SMILES
7320,8,7,10,,19,> 250,,,,,,,CC[C@H](C)[C@H](NC)C(=O)N[C@H](C(=O)N[C@@H](CC(C)C)C(=O)N[C@@H](CO)C(=O)N[C@@H](CC(C)C)C(=O)N[C@@H](CC(=O)O)C(=O)N[C@@H](C(=O)N1CCC[C@H]1C(=O)N[C@H](C(=O)N[C@@H](CCCCN)C(=O)N[C@@H](CC(C)C)C(=O)N[C@@H](CCCCNC(=O)CC[C@H](NC(=O)CCCCCCCCCCCCCCCCCCC(=O)O)C(=O)O)C(=O)N[C@@H](CCCCN)C(=O)N[C@H](C(=O)N[C@@H](CC(C)C)C(=O)N[C@@H](CC(C)C)C(=O)N[C@@H](CCC(=O)O)C(=O)N[C@@H](CCC(N)=O)C(=O)N[C@@H](CCC(=O)O)C(=O)N[C@@H](CCCCN)C(=O)N[C@@H](CCC(N)=O)C(=O)N[C@@H](CCCCN)C(=O)NC(C)(C)C(=O)N[C@@H](CCC(N)=O)C(=O)N[C@@H](CCCNC(=N)N)C(=O)N[C@@H](CCC(=O)O)C(=O)N[C@@H](CCC(N)=O)C(=O)N[C@@H](C)C(=O)N[C@@H](CCC(=O)O)C(=O)N[C@H](C(=O)N[C@@H](CC(N)=O)C(=O)NC(C)(C)C(=O)N[C@@H](CCC(N)=O)C(=O)N[C@H](C(=O)N[C@@H](CC(C)C)C(=O)N[C@@H](C)C(=O)N[C@@H](CCC(N)=O)C(=O)N[C@H](C(N)=O)C(C)C)[C@@H](C)CC)[C@@H](C)O)[C@@H](C)CC)[C@@H](C)CC)C(C)C)C(C)C [compound 215] (H-[NMeI]VLSLD[dV]PIKLK([γGlu-C20 diacid])KILLEQEKQK[Aib]QREQAETN[Aib]QILAQV-NH2)
6740,11,24,,99,24,> 250,109,,,,,102,CC[C@H](C)[C@H](NC)C(=O)N[C@H](C(=O)N[C@@H](CC(C)C)C(=O)N[C@@H](CO)C(=O)N[C@@H](CC(C)C)C(=O)N[C@@H](CC(=O)O)C(=O)N[C@@H](C(=O)N1CCC[C@H]1C(=O)N[C@H](C(=O)N[C@@H](CCCCN)C(=O)N[C@@H](CC(C)C)C(=O)N[C@@H](CCCCNC(=O)CC[C@H](NC(=O)CCCCCCCCCCCCCCCCCCC(=O)O)C(=O)O)C(=O)N[C@@H](CCCCN)C(=O)N[C@H](C(=O)N[C@@H](CC(C)C)C(=O)N[C@@H](CC(C)C)C(=O)N[C@@H](CCC(=O)O)C(=O)N[C@@H](CCC(N)=O)C(=O)N[C@@H](CCC(=O)O)C(=O)N[C@@H](CCCCN)C(=O)N[C@@H](CCC(N)=O)C(=O)N[C@@H](CCCCN)C(=O)N[C@@H](CCC(=O)O)C(=O)N[C@@H](CCC(N)=O)C(=O)N[C@@H](CCCNC(=N)N)C(=O)N[C@@H](CCC(=O)O)C(=O)N[C@@H](CCC(N)=O)C(=O)N[C@@H](C)C(=O)N[C@@H](CCC(=O)O)C(=O)N[C@H](C(=O)N[C@@H](CC(N)=O)C(=O)NC(C)(C)C(=O)N[C@@H](CCC(N)=O)C(=O)N[C@H](C(=O)N[C@@H](CC(C)C)C(=O)N[C@@H](C)C(=O)N[C@@H](CCC(N)=O)C(=O)N[C@H](C(N)=O)C(C)C)[C@@H](C)CC)[C@@H](C)O)[C@@H](C)CC)[C@@H](C)CC)C(C)C)C(C)C [compound 218] (H-[NMeI]VLSLD[dV]PIKLK([γGlu-C20 diacid])KILLEQEKQKEQREQAETN[Aib]QILAQV-NH2)
